{
  "source": "patent US12459902B2",
  "about": "“Crystalline forms of 4-(7-hydroxy-2-isopropyl-4-oxo-4H-quinazolin-3-yl)-benzonitrile and formulations thereof” (priority 2020, dated 2025)",
  "key": {"[1]": {"assay": "Water uptake on exposure to moisture (hygroscopicity)", "type": "physicochemical", "conditions": "for maximum water uptake: up to 95% RH at 25° C."}, "[2]": {"type": "physicochemical"}, "Solubility in water": {"assay": "Solubility in water", "conditions": "water at 25° C."}},
  "data": [
    {"smiles": "CC(C)c1nc2cc(O)ccc2c(=O)n1-c1ccc(C#N)cc1", "note": "[Hydrate HB, 4-(7-Hydroxy-2-isopropyl-4-oxo-4H-quinazolin-3-yl)-benzonitrile]", "values": [
      {"measurement": "additional water uptake above 70% RH", "setting": "[1]; above 70% RH, at 95% RH, 25° C.", "result": "about 2.5%"},
      {"measurement": "water uptake up to 70% RH", "setting": "[1]; up to 70% RH at 25° C.", "result": "slight uptake of water"}
    ]},
    {"smiles": "CC(C)c1nc2cc(O)ccc2c(=O)n1-c1ccc(C#N)cc1", "note": "[crystal form B, 4-(7-Hydroxy-2-isopropyl-4-oxo-4H-quinazolin-3-yl)-benzonitrile]", "values": [
      {"measurement": "conversion of equimolar suspension of crystal form B and crystal form M", "setting": "[2]; 20° C., 30° C. and 35° C., isopropylacetate, dichloromethane, ethanol or water, 7 days", "result": "converted after 7 days almost completely into crystal form M"}
    ]},
    {"smiles": "CC(C)c1nc2cc(O)ccc2c(=O)n1-c1ccc(C#N)cc1", "note": "[crystal form E, 4-(7-Hydroxy-2-isopropyl-4-oxo-4H-quinazolin-3-yl)-benzonitrile]", "values": [
      {"measurement": "conversion of equimolar suspension of crystal form M and crystal form E", "setting": "[2]; 30° C., 35° C. and 45° C., isopropylacetate, dichloromethane, ethanol or water, 7 days", "result": "converted after 7 days completely into Modification M"}
    ]},
    {"smiles": "CC(C)c1nc2cc(O)ccc2c(=O)n1-c1ccc(C#N)cc1", "note": "[crystal form K′, 4-(7-Hydroxy-2-isopropyl-4-oxo-4H-quinazolin-3-yl)-benzonitrile]", "values": [
      {"measurement": "hygroscopicity", "setting": "[1]; 25° C.", "result": "non-hygroscopic"},
      {"measurement": "maximum water uptake", "setting": "[1]", "result": "less than 0.2%"}
    ]},
    {"smiles": "CC(C)c1nc2cc(O)ccc2c(=O)n1-c1ccc(C#N)cc1", "note": "[crystal form M, 4-(7-Hydroxy-2-isopropyl-4-oxo-4H-quinazolin-3-yl)-benzonitrile]", "values": [
      {"measurement": "hygroscopicity", "setting": "[1]; 25° C.", "result": "non hygroscopic"},
      {"measurement": "maximum water uptake", "setting": "[1]", "result": "less than 0.1%"},
      {"measurement": "solubility in water", "setting": "Solubility in water", "result": 40, "unit": "µg/mL"},
      {"measurement": "thermodynamic stability relative to crystal form B", "setting": "[2]; temperature range from 20° C. to 35° C.", "result": "thermodynamically more stable than crystal form B"},
      {"measurement": "thermodynamic stability relative to crystal form Q", "setting": "[2]; temperature range from 22° C. to 35° C.", "result": "thermodynamically more stable than crystal form Q"},
      {"measurement": "thermodynamic stability relative to crystal form E", "setting": "[2]; temperature range from 30° C. to 45° C.", "result": "thermodynamically more stable than crystal form E"}
    ]},
    {"smiles": "CC(C)c1nc2cc(O)ccc2c(=O)n1-c1ccc(C#N)cc1", "note": "[crystal form Q, 4-(7-Hydroxy-2-isopropyl-4-oxo-4H-quinazolin-3-yl)-benzonitrile]", "values": [
      {"measurement": "hygroscopicity", "setting": "[1]; 25° C.", "result": "non hygroscopic"},
      {"measurement": "maximum water uptake", "setting": "[1]", "result": "less than 0.1%"},
      {"measurement": "conversion of equimolar suspension of crystal form M and crystal form Q", "setting": "[2]; 22° C., 30° C. and 35° C., isopropylacetate, dichloromethane, ethanol or water, 7 days", "result": "converted after 7 days completely into crystal form M"}
    ]}
  ]
}
